Calls of active or inactive are those of the source. For most assays here, no stated cut-off is given here; in the data, actives have a measured Kd and inactives only a lower limit.
Legend:
[1] = molecular target: Cyclin-dependent kinase 7 (Homo sapiens, UniProt P50613)
Glycine--tRNA ligase = molecular target: T1, Glycine--tRNA ligase (Homo sapiens, UniProt P41250)
T1 sequence (P41250 whole entry): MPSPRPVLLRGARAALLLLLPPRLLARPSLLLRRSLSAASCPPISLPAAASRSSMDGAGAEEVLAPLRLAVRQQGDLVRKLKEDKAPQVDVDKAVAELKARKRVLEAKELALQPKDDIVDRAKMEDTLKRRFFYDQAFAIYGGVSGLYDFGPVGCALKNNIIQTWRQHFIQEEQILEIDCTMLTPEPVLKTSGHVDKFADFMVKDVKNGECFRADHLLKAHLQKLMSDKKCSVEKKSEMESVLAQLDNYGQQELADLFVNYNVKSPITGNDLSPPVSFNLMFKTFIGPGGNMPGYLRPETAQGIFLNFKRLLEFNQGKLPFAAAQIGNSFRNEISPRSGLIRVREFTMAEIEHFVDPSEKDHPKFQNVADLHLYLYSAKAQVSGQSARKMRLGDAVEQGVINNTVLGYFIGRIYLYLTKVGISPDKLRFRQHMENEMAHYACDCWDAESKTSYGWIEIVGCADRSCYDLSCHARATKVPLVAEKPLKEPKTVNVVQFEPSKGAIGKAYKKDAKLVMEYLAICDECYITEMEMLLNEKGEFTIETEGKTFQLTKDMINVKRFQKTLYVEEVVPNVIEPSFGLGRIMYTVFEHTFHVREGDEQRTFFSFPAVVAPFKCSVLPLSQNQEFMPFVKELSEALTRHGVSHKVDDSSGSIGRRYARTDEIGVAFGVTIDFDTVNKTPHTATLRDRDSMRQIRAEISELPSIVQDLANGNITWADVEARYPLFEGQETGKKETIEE

[2] = molecular target: T2, Mitogen-activated protein kinase kinase kinase kinase 2 (Homo sapiens, UniProt Q12851)
T2 sequence (Q12851 whole entry): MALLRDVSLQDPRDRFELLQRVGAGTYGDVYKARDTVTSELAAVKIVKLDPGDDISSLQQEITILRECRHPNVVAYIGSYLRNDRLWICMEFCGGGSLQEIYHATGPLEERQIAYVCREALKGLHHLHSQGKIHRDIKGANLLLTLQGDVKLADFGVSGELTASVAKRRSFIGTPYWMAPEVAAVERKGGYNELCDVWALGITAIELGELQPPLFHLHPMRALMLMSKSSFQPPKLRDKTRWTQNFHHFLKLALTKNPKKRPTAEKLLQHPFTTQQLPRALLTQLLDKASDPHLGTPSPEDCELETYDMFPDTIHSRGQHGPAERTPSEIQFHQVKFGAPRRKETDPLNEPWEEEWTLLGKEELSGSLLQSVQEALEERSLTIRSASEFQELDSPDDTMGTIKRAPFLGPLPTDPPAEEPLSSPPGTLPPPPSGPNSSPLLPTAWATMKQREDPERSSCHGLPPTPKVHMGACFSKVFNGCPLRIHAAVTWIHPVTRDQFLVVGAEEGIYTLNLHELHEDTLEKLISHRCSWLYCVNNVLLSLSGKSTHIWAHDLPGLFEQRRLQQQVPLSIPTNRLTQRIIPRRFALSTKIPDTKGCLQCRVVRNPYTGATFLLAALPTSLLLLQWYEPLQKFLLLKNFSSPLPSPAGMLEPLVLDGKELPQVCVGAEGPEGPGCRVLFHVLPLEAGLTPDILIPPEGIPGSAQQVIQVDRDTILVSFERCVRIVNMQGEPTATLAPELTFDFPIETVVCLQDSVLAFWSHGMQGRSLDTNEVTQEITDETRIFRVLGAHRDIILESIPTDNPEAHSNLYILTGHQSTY

[3] = molecular target: Mitogen-activated protein kinase kinase kinase kinase 5 (Homo sapiens, UniProt Q9Y4K4)
[4] = molecular target: T3, Serine/threonine-protein kinase PLK4 (Homo sapiens, UniProt O00444)
T3 sequence (O00444 whole entry): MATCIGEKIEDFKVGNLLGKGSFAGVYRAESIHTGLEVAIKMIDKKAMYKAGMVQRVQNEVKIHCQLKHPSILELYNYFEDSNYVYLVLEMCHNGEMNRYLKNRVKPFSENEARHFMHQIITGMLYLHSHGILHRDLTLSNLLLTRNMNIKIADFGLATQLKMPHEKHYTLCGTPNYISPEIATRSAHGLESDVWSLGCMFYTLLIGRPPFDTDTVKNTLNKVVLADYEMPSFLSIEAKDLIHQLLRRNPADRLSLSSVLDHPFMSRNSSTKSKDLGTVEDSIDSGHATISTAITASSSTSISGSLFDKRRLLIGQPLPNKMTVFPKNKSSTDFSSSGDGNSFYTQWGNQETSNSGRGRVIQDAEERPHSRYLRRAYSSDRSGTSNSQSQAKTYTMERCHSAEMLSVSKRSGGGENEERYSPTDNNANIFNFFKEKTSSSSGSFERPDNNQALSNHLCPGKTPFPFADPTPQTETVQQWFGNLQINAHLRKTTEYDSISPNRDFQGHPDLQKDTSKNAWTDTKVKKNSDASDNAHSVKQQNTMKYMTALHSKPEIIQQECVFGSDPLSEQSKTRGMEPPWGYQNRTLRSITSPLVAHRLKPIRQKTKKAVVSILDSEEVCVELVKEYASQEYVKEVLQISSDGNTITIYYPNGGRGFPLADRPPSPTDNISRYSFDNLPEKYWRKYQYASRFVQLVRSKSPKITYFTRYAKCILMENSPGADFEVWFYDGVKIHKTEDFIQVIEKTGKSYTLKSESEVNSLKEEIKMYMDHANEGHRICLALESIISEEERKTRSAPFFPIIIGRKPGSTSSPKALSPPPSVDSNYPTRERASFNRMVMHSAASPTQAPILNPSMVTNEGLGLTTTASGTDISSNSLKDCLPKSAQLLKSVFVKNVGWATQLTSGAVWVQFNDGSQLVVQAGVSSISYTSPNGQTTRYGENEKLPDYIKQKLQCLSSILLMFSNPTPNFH

[5] = molecular target: cAMP-dependent protein kinase catalytic subunit gamma (Homo sapiens, UniProt P22612)
cAMP-dependent protein kinase catalytic subunit gamma, sequence (P22612 whole entry): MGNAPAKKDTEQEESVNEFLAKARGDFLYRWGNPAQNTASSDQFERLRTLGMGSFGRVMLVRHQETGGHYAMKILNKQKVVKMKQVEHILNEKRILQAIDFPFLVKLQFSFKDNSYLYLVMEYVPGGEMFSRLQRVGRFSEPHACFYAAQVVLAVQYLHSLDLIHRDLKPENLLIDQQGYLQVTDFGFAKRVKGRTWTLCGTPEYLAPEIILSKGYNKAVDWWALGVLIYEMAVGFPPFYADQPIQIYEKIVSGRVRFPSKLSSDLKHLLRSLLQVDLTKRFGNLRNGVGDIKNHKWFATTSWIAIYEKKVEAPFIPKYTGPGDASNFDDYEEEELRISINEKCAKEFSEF

Cyclin-dependent kinase 7, sequence (P50613 whole entry): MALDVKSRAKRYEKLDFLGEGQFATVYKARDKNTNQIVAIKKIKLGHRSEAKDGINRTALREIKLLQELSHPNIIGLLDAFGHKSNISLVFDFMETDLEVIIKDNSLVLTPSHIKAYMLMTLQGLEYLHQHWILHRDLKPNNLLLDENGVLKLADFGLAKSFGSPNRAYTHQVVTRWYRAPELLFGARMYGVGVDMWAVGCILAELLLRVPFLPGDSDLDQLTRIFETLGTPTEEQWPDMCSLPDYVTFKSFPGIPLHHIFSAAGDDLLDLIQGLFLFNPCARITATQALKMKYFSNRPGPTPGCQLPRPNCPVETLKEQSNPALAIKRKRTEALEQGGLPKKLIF
Mitogen-activated protein kinase kinase kinase kinase 5, sequence (Q9Y4K4 whole entry): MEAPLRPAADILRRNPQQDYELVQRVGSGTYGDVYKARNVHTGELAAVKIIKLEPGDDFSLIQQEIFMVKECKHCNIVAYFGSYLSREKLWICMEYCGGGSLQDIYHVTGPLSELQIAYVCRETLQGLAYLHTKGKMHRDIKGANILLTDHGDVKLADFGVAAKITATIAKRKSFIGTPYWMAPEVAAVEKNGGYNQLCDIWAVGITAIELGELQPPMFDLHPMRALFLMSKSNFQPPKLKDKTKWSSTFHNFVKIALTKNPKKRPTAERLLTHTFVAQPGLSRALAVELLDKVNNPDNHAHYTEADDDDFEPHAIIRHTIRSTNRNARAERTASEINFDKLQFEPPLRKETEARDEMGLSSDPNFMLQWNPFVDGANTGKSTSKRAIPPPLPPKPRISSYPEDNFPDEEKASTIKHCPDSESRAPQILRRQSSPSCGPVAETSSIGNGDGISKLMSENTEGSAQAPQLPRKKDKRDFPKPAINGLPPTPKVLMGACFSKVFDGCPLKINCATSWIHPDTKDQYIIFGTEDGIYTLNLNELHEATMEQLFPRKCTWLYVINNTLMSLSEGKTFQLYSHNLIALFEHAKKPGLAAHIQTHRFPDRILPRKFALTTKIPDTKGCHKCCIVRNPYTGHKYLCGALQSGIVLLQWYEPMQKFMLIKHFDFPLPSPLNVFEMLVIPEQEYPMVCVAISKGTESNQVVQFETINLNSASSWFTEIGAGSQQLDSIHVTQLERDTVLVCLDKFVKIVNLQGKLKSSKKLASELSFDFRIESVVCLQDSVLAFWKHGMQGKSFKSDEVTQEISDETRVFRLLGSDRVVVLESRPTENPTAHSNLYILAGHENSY

Kd [1] | Kd (Glycine--tRNA ligase) | Kd [2] | Kd [3] | Kd [4] | Kd [5] | Compound
> 30 µM (inactive) | > 30 µM (inactive) | > 30 µM (inactive) | > 30 µM (inactive) | > 30 µM (inactive) | > 30 µM (inactive) | CCc1cc2c(cc1N1CCC(N3CCOCC3)CC1)C(C)(C)c1[nH]c3cc(C#N)ccc3c1C2=O [ALECTINIB]
> 30 µM (inactive) | > 30 µM (inactive) | > 30 µM (inactive) | > 30 µM (inactive) | > 30 µM (inactive) | 0.002 µM | COc1ccc2c(OCc3nnc4ccc(-c5ccccc5)nn34)ccnc2c1 [AMG-208]
> 30 µM (inactive) | > 30 µM (inactive) | > 30 µM (inactive) | > 30 µM (inactive) | 0.308 µM (active) | > 30 µM (inactive) | Cc1cc(Nc2nc(N[C@@H](C)c3ncc(F)cn3)ncc2Cl)n[nH]1 [AZD-1480]
> 30 µM (inactive) | > 30 µM (inactive) | > 30 µM (inactive) | > 30 µM (inactive) | > 30 µM (inactive) | > 30 µM (inactive) | COc1ccc(-c2ccc3ncc4c(c3c2)n(-c2ccc(N3CCNCC3)c(C(F)(F)F)c2)c(=O)n4C)cn1 [BGT-226 FREE BASE]
> 30 µM (inactive) | > 30 µM (inactive) | – | > 30 µM (inactive) | 0.301 µM | > 30 µM (inactive) | CCOc1ccn(-c2ccc(F)cc2)c(=O)c1C(=O)Nc1ccc(Oc2ccnc(N)c2Cl)c(F)c1 [BMS-777607]
> 30 µM (inactive) | > 30 µM (inactive) | > 30 µM (inactive) | > 30 µM (inactive) | > 30 µM (inactive) | > 30 µM (inactive) | COc1cc2nccc(Oc3ccc(NC(=O)C4(C(=O)Nc5ccc(F)cc5)CC4)cc3)c2cc1OC [CABOZANTINIB]
> 30 µM (inactive) | > 30 µM (inactive) | > 30 µM (inactive) | > 30 µM (inactive) | > 30 µM (inactive) | > 30 µM (inactive) | c1cc(OCCN2CCCCC2)cc(-c2n[nH]c3ccc(-c4nc[nH]n4)cc23)c1 [CC-401]
> 30 µM (inactive) | > 30 µM (inactive) | > 30 µM (inactive) | > 30 µM (inactive) | 0.57 µM (active) | > 30 µM (inactive) | COc1cc(Nc2ncc(F)c(Nc3ccc4c(n3)N(COP(=O)(O)O)C(=O)C(C)(C)O4)n2)cc(OC)c1OC [FOSTAMATINIB]
> 30 µM (inactive) | > 30 µM (inactive) | > 30 µM (inactive) | > 30 µM (inactive) | > 30 µM (inactive) | > 30 µM (inactive) | O=S(=O)(c1cccc2c(O)nccc12)N1CCCNCC1 [HYDROXYFASUDIL]
> 30 µM (inactive) | > 30 µM (inactive) | > 30 µM (inactive) | > 30 µM (inactive) | > 30 µM (inactive) | > 30 µM (inactive) | COc1cc2ncnc3c2cc1OCCCCCN(C)Cc1ccc(Br)cc1N3 [JNJ-26483327]
> 30 µM (inactive) | > 30 µM (inactive) | > 30 µM (inactive) | > 30 µM (inactive) | > 30 µM (inactive) | > 30 µM (inactive) | O=C(NOC[C@H](O)CO)c1ccc(F)c(F)c1Nc1ccc(I)cc1F [MIRDAMETINIB]
> 30 µM (inactive) | > 30 µM (inactive) | > 30 µM (inactive) | > 30 µM (inactive) | > 30 µM (inactive) | > 30 µM (inactive) | COc1cccc2cc(-c3nc([C@H]4CC[C@H](C(=O)O)CC4)n4ncnc(N)c34)[nH]c12 [OSI-027]
> 30 µM (inactive) | > 30 µM (inactive) | > 30 µM (inactive) | > 30 µM (inactive) | > 30 µM (inactive) | > 30 µM (inactive) | FC(F)(F)c1ccc(CNc2ccc(Cc3c[nH]c4ncc(Cl)cc34)cn2)cn1 [PEXIDARTINIB]
> 30 µM (inactive) | > 30 µM (inactive) | > 30 µM (inactive) | > 30 µM (inactive) | > 30 µM (inactive) | > 30 µM (inactive) | O=C(NC[C@H](O)CO)c1ccncc1Nc1ccc(I)cc1F [PIMASERTIB]

Compound | Kd [1] | Kd (Glycine--tRNA ligase) | Kd [2] | Kd [3] | Kd [4] | Kd [5]
Cc1c(NC(=O)OC[C@@H]2COCCN2)cn2ncnc(Nc3ccc4c(cnn4Cc4cccc(F)c4)c3)c12 [AC-480] | > 30 µM (inactive) | > 30 µM (inactive) | > 30 µM (inactive) | > 30 µM (inactive) | > 30 µM (inactive) | > 30 µM (inactive)
CCc1nc(C(N)=O)c(Nc2ccc(N3CCC(N4CCN(C)CC4)CC3)c(OC)c2)nc1NC1CCOCC1 [GILTERITINIB] | > 30 µM (inactive) | > 30 µM (inactive) | 0.244 µM (active) | 3.12 µM (active) | 0.018 µM | > 30 µM (inactive)
Cc1c(Cn2c(C)nc3c(C(=O)O)cc(N4CCOCC4)cc32)cccc1C(F)(F)F [GSK-2636771] | > 30 µM (inactive) | > 30 µM (inactive) | > 30 µM (inactive) | > 30 µM (inactive) | > 30 µM (inactive) | > 30 µM (inactive)
C[C@]1(O)C[C@@H](c2nc(-c3ccc4ccc(-c5ccccc5)nc4c3)c3c(N)nccn32)C1 [LINSITINIB] | > 30 µM (inactive) | > 30 µM (inactive) | 0.067 µM (active) | 0.614 µM (active) | – | > 30 µM (inactive)
C=CC(=O)Nc1cc(Nc2nccc(-c3cn(C)c4ccccc34)n2)c(OC)cc1N(C)CCN(C)C [OSIMERTINIB] | > 30 µM (inactive) | > 30 µM (inactive) | > 30 µM (inactive) | > 30 µM (inactive) | > 30 µM (inactive) | > 30 µM (inactive)
CC(C)CC(=O)Nc1[nH]nc2c1CN(C(=O)C1CCN(C)CC1)C2(C)C [PHA-793887] | 0.008 µM (active) | > 30 µM (inactive) | > 30 µM (inactive) | > 30 µM (inactive) | > 30 µM (inactive) | > 30 µM (inactive)
COc1cc(F)c(F)c(Nc2ccc(I)cc2F)c1NS(=O)(=O)C1(C[C@H](O)CO)CC1 [REFAMETINIB] | > 30 µM (inactive) | > 30 µM (inactive) | > 30 µM (inactive) | > 30 µM (inactive) | > 30 µM (inactive) | > 30 µM (inactive)
